Data as given in patent publication US10772859B2, “Methods of targeting APE/Ref-1 to inhibit hypoxia signaling genes” (Indiana University Research and Technology Corporation, priority 2015, dated 2020).
Where two headings read alike, the source gives them in different places.

What was measured:
[1] = system: PDAC tumor spheroids (Pa03C and Panc10.05) alone and with CAFs; assay: Three-dimensional growth assay, PDAC/CAF co-culture (Example 2); type: cell-based, human; settings: tumor spheroids alone and in culture with CAFs
Method: Ninety-six well plates were coated with 1% Noble Agar (Difco) (50 μL/well). mCherry-labeled PDAC cells and EGFP-labeled CAFs were resuspended in normal growth media containing 3% Matrigel (BD Biosciences) at a cell ratio of 1:4 (tumor:CAF) and plated on top of solidified 1% Noble Agar. Cells were fed on Days 4 and 8 following plating with media containing 5% serum+3% Matrigel+investigational drug.
Utilizing APX3330, JAK 2 inhibitor (Ruxolitinib (INCB018424; Fisher Scientific) (“RUX”)) and lead STATS inhibitors (PG-S3-001, DR-4-89), the effects of Ref-1/STAT3 inhibition in PDAC low passage patient-derived cell lines (Pa03C and Panc10.05) were evaluated. The response using proliferation-based 3D co-culture assays and statistical analyses to assess synergy, additively or antagonism was evaluated using the Chou-Talalay method.
This Example was designed to visualize the same live co-cultures over 12 days with images captured by Thermo ArrayScan at 8 and 12 days of co-culture. Cancer and stromal cells in this model were marked with distinct fluorescent proteins (mCherry for tumor and EGFP for CAFs) so that the cell populations could be differentiated and quantified. […] In this way, drug efficacy of PDAC cells could be evaluated in co-culture with CAFs, which more faithfully mimics the natural in vivo PDAC environment.

[2] = system: PDAC; assay: Single-agent STAT3 inhibitor activity in vivo (FIG. 14)
[3] = system: Pa03C and Panc10.05 tumor spheroids with or without CAFs; assay: 3D co-culture tumor spheroid model (Example 1); type: cell-based, human; settings: for tumor cell killing (reduction in area of tumor cells): 3D spheroids, 12 days in culture, with and without CAFs
Method: 3D Co-Cultures: Ultra low attachment 96-well plates (Corning Inc., Life Sciences) were used to generate 3-dimensional tumor spheroids in the presence and absence of CAFs (75 μL/well) as described previously (Sempere, Gunn et al. (2011) Cancer Biol Ther 12(3): 198-207; Arpin, Mac et al. (2015) Molecular Cancer Therapeutics). Cells were stably transduced with EGFP (green) or TdTomato (red) as indicated to preserve the genetic characteristics of the low passage patient cells (Jones, Zhang et al. (2008) Science 321(5897): 1801-1806). Cells were re-suspended in colorless DMEM growth media containing 3% Reduced Growth Factor Matrigel (RGF, BD Biosciences) and 5% FBS. Following plating, cells were treated on Days 4 and 8 with media containing 5% serum, 3% RGF Matrigel, and inhibitors as indicated. On Day 12, spheroids were analyzed using Thermo ArrayScan high-content imaging system (Lovborg, Nygren et al. (2004) Mol Cancer Ther 3(5): 521-526; Lindblom, Berg et al. (2012) Toxicol Pathol 40(1): 18-32). Images of 3D structures were captured by ArrayScan using a 2.5× objective for TdTomato and EGFP; then 2D projections were processed to quantify differences in total intensity and total area of both CAFs and tumor.

[4] = system: CA9 mRNA; settings: Panc-1 and MIA-PaCa2 cells exposed to hypoxia, previously shown; cited from earlier work
[5] = system: CA9 mRNA; assay: qRT-PCR of CA9 mRNA levels under hypoxia; type: cell-based, human; settings: 24 hours of exposure to APX3330 and 1% oxygen
Method: qRT-PCR Reactions: qRT-PCR was used to measure the mRNA expression levels of CA9 as described in Fishel, Jiang et al. (2011) Molecular Cancer Therapeutics 10(9): 1698-1708. Cells were treated with APE1/Ref-1 siRNA or increasing amounts of APX3330 in the presence or absence of hypoxia (1% and 0.2% O2) for 24 hours, then total RNA was extracted from cells using the QiagenRNeasy Mini kit (Valencia, Calif.). First-strand cDNA synthesis and quantitative PCR were performed as described in Fishel, Vasko et al. (2007) Mutat Res 614(1-2): 24-36; Jiang, Guo et al. (2009) DNA Repair (Amst) 8(11): 1273-1282; Fishel, Jiang et al. (2011) Molecular Cancer Therapeutics 10(9): 1698-1708. The relative quantitative mRNA level was determined using the comparative Ct method using 18S rRNA, RPLPO, and B2M as reference genes (Livak and Schmittgen (2001) Methods 25(4): 402-408; Fishel, Vasko et al. (2007) Mutat Res 614(1-2): 24-36; Jiang, Guo et al. (2009) DNA Repair (Amst) 8(11): 1273-1282). The primers for CA9, 18S, RPLPO, and B2M are commercially available (Applied Biosystems).

[6] = system: Pa02C cells; assay: Alamar Blue cell proliferation in monolayer under hypoxia; type: cell-based, human; settings: hypoxia (0.2%) for six days, single agent
Method: Cell Proliferation: PDAC cell proliferation in monolayer was measured using the Alamar Blue assay as described in Fishel, Wu et al. (2015) J Biol Chem 290(5): 3057-3068. Cells treated with APX3330 and SLC-0111 were exposed to hypoxia for six days followed by addition of Alamar Blue reagent (Invitrogen) and subsequent fluorescence analysis. Fold change refers to the fluorescence reading for cells treated with indicated inhibitors compared to cells growing in normal media.

[7] = system: CA9 protein; assay: Western blot of CA9 protein in 3D tumor spheroid cultures with or without CAFs; type: cell-based, human; settings: Pa03C 3D tumor cultures, in the presence and absence of CAF cells
Method: Western Blot Analysis: Western blots were performed as described in Wang, Luo et al. (2004) Mol Cancer Ther 3(6): 679-686; Fishel, He et al. (2008) DNA Repair (Amst) 7(2): 177-186; Fishel, Colvin et al. (2010) Hematol 38(12): 1178-1188; Jiang, Zhou et al. (2010) Cancer Investigation 28(9): 885-895; Fishel, Jiang et al. (2011) Molecular Cancer Therapeutics 10(9): 1698-1708; Cardoso, Jiang et al. (2012) PLoS ONE 10: e47462; Fishel, Wu et al. (2015) J Biol Chem 290(5): 3057-3068, with antibodies for APE1/Ref-1 (Novus Biologicals; Littleton, Colo.), HIF1α (GeneTex; Irvine, Calif.), STAT1, STATS, (Cell Signaling; Danvers, Mass.), NFκB (abcam; Cambridge, Mass.), CA9 (Santa Cruz; Dallas, Tex.) and Vinculin (Sigma; St. Louis, Mo.).
3D Co-Cultures: Ultra low attachment 96-well plates (Corning Inc., Life Sciences) were used to generate 3-dimensional tumor spheroids in the presence and absence of CAFs (75 μL/well) as described previously (Sempere, Gunn et al. (2011) Cancer Biol Ther 12(3): 198-207; Arpin, Mac et al. (2015) Molecular Cancer Therapeutics). […] On Day 12, spheroids were analyzed using Thermo ArrayScan high-content imaging system (Lovborg, Nygren et al. (2004) Mol Cancer Ther 3(5): 521-526; Lindblom, Berg et al. (2012) Toxicol Pathol 40(1): 18-32). […]

Structure (SMILES)	killing of tumor spheroids [1]	activity in vivo [2]	cell killing in tumor cells versus CAFs ([3]; 3D co-culture, especially CAF19 with Pa03C)	tumor cell killing (reduction in area of tumor cells) [3]	CA9 mRNA levels [4]	CA9 mRNA levels ([5]; Pa03C cells)	CA9 mRNA levels ([5]; pancreatic CAF cells)	PDAC cell proliferation [6]	CA9 expression (protein) [7]
CC(C)C(C(=O)N(Cc1ccc(C2CCCCC2)cc1)c1ccc(C(=O)O)cc1)N(C)S(=O)(=O)c1c(F)c(F)c(F)c(F)c1F (centres unmarked) [PG-S3-001, reference compound]	effectively killed both tumor spheroids alone and in culture with CAFs	some activity was observed in vivo							
NS(=O)(=O)c1ccc(NC(=O)Nc2ccc(F)cc2)cc1 [SLC-0111]			more dramatic in the tumor cells than in the CAFs	dramatic effects on tumor cell killing observed at lower doses than in a monolayer					
CCCCCCCCCC(=CC1=C(C)C(=O)C(OC)=C(OC)C1=O)C(=O)O [APX3330]	effectively killed both tumor spheroids alone and in culture with CAFs			decrease in tumor cell area	decreases	attenuated in a dose-dependent manner	attenuated in a dose-dependent manner	dose-dependent decrease	decreased CA9 expression in 3D tumor cultures in a dose-dependent manner
